According to patent publication US9447023B2, “Curcumin and tetrahydrocurcumin derivatives” (Research Foundation of the City University of New York, priority 2006, dated 2016):

How the values were obtained:
[1] = Molar extinction coefficient of curcumin analogs (UV-visible); assay type: physicochemical; conditions: in M-1 cm-1 (unit assumed)
Text: Each curcumin derivative is bioconjugated to create a biopolymer that can be used as an eco-friendly dye. For example, compounds 1b and 1d can be conveniently conjugated to the lysine residues of proteins, the azide and the alkyne derivatives can be attached to proteins via the ‘click’ bioconjugation reaction. Compounds 1c and 1e have the advantage that unlike most reactive groups which are used for bioconjugation, alkyne and azide groups are stable in aqueous media (Scheme 5). The absorbance and fluorescence properties of these dyes are similar to the parent molecule.
Reagent-grade solvents such as acetone and tetrahydrofuran were used without further purification. For High Performance Liquid Chromatography (HPLC), methylene chloride was used with Pure Solv™ solvent purification system. Curcumin was obtained from Acros-Organics. Copper acetate and sodium ascorbate were purchased from Sigma. Silica gel 60 F 254 plates for thin-layer chromatography (TLC) were purchased from Merck. Column chromatographic separations were carried out using silica gel (Fisher) with a particle size of 0.040-0.063 mm. Nuclear magnetic resonance (NMR) was recorded on Bruker Avance 600 (600 MHz) spectrometers. Mass spectra (ES-MS) were recorded on a LC/MS and Time Of Flight (TOF) mass spectrometer. U.V.-Visible spectra were recorded using a ChemStation Rev. A.10.01 from Agilent Technologies

[2] = human subjects, doses as high as 8 g of curcumin per day; cited from earlier work
[3] = unmodified curcumin, background statement; cited from earlier work
amyloid plaques = conditions: cited from earlier work
Oligodendroglioma cells = assay: Apoptosis of Oligodendroglioma cells (DAPI staining); assay type: cell-based; conditions: 50 micro molar
Protocol: The small molecule curcumin analogs including curcumin dimers, curcumin polymers and curcumin modified polymers, typical examples shown in Schemes 1-6 of the present invention can be used for the treatment of cancer. […] Oligodendroglioma cells were treated with 50 micro molar concentration of curcumin and asymmetric curcumin dimer stained with DAPPI presented.
Very limited cell death is seen in human fibroblasts, which serve as a benign control cell line. The percentage of apoptosis is lower at higher concentrations (100 μM and more) as compared to that at 20 μM and 50 μM for all the compounds including curcumin because at higher concentration curcumin and analogs of the invention cause HOG cell necrosis. This alternate pathway of cell killing has been established via DNA laddering studies.

COc1cc(/C=C\C(=O)CC(=O)/C=C\c2ccc(OC(=O)CCCC(=O)NCCOCCOCCOCCOCCOCCOCCN=[N+]=[N-])c(OC)c2)ccc1O [Compound 4, Mono-2-(2-(2-(2-(2-(2-(2-azidoethoxy)ethoxy)ethoxy)ethoxy)ethoxy)ethoxy)ethylcarbamoyl butanoate-Curcumin]
Molar Extinction Coeffecient [1]: 26764

C#CCOc1ccc(C=CC(=O)CC(=O)C=Cc2ccc(O)c(OC)c2)cc1OC [Compound 5, Mono-Propargyl Curcumin]
Molar Extinction Coeffecient [1]: 29510

COc1cc(/C=C\C(=O)CC(=O)/C=C\c2ccc(O)c(OC)c2)ccc1O [Curcumin, (1Z,6Z)-1,7-bis(4-hydroxy-3-methoxyphenyl)hepta-1,6-diene 3,5-dione]
average peak serum concentration [2]: 652.5 ng/mL | Molar Extinction Coeffecient [1]: 50,000 | water and plasma solubility [3]: poor water and plasma solubility | amyloid levels and plaque burden (amyloid plaques; fed to mice with advanced amyloid accumulation): reduced amyloid levels and plaque burden | blood-brain barrier crossing and plaque binding (amyloid plaques; injected, transgenic mouse model): crosses the blood-brain barrier and binds amyloid plaques

(2-(2-(2-(2-(2-(2-(2-(4-methylene)-1H-1,2,3-triazol-1-yl)ethoxy)ethoxy)ethoxy)ethoxy)ethoxy)ethoxy)ethylcarbamoyl butanoate curcumin dimer [Compound 7]
apoptosis characterized by nuclear condensation (DAPI staining) (Oligodendroglioma cells): Extensive apoptosis | induction of apoptosis relative to parent compound curcumin (Oligodendroglioma cells): superior in inducing apoptosis
